Read-outs that look alike come from different tables or passages of the source.
Tests used:
[1] = system: A. baumannii BAA-1793; conditions: determined by ATCC according to CLSI guidelines, ref ATCC; cited from earlier work
Description: Supplement 41598_2021_86155_MOESM1_ESM.docx, table 3: Table S3. Supplementary information about the resistance pattern of the bacterial strain A. baumannii BAA-1793 used in the Minimum Inhibitory Concentration study presented in Table 1.

[2] = system: E. faecium BAA-2319; conditions: determined by ATCC according to CLSI guidelines, ref ATCC; cited from earlier work
Description: Supplement 41598_2021_86155_MOESM1_ESM.docx, table 2: Table S2. Supplementary information about the resistance pattern of the bacterial strain E. faecium BAA-2319 used in the Minimum Inhibitory Concentration study presented in Table 1.

[3] = system: Staphylococcus aureus; experiment: VITEK 2 antimicrobial sensitivity characterization; type: cell-based; conditions: VITEK 2 system, CLSI ranges
Procedure: (§1) This experiment was conducted by Omnix Medical, by JMI Laboratories (North Liberty, IA, USA) and by Aptuit (Verona) S.r.l. (Italy), an Evotec Company. All studies were performed according to Clinical and Laboratory Standards Institute guidelines[30] for the application of the broth microdilution method. Reference strains from American Type Culture Collection (ATCC) and clinical isolates from the Evotec EvostrAIn and the JMI Laboratories SENTRY surveillance program culture collections (Acinetobacter baumannii: ACC 00445, ACC 00527, ACC 00535, ATCC 17978, ATCC 19606, ATCC BAA-1793, ACC 01076, ACC 01077, NCTC 13420, JMI #1088100 and JMI #1001007; Klebsiella pneumoniae: ATCC 43816 and ATCC BAA-1705; Escherichia coli: ACC 01001 and ATCC 25922; Staphylococcus aureus: ATCC 29213, ATCC BAA-44 and ATCC 33591; Bacillus cereus: ATCC 14579; Enterococcus faecalis: ATCC 29212; Enterococcus faecium: ATCC BAA-2319) were used. The antimicrobial activity of OMN6 was determined by 12 serial two-fold dilutions in water of the 100-fold highest compound solution; 1 µL of each well was transferred into 96 microtiter plates (final concentration: 256–0.12 µg/mL). In most strains, same procedure was used to determine the colistin antimicrobial activity (final concentration: 32–0.015 µg/mL). Bacterial strains were sub-cultured on the agar plates and incubated for 18–24 h at 35 ± 2 °C in ambient air. Following incubation, the inoculum was prepared from isolated colonies and adjusted to 0.5 McFarland turbidity standard (1 to 2 × 10^8 colony-forming units/mL) in 0.9% saline. Bacterial suspension was then diluted 1:200 in Muller-Hinton broth (from BD; Becton, Dickinson and Company, Franklin Lakes, NJ, USA) and within 15 min 100 µL/well were dispensed. Growth-control wells and sterility-check wells (uninoculated well) were present in each plate. Plates were incubated for 18–24 h at 35 ± 2 °C in ambient air. […] The antimicrobial activity to other antibiotics on most bacterial strains was determined by Evotec using the antimicrobial sensitive test from the VITEK 2 automated microbiology system (bioMérieux SA, Marcy l'Etoile, France; data presented in Table S1), or by ATCC according to CLSI (Clinical and Laboratory Standards Institute) guidelines[30]
Table S1. Supplementary information about the resistance pattern of 14 bacterial strains used in the Minimum Inhibitory Concentration study presented in Table 1. The resistance pattern of the different bacterial isolates was characterized by broth microdilution studies (for colistin) or with the VITEK 2 system (for the other antibiotics).

[4] = system: Acinetobacter baumannii clinical isolates; experiment: Time-kill studies; type: cell-based; conditions: Difco Muller Hinton Broth
Procedure: Time-kill experiments were performed by JMI Laboratories (North Liberty, IA, USA) as described in chapter 5.14 of the Clinical Microbiology Procedures Handbook[32] and the CLSI M26-A[33] document. Two Acinetobacter baumannii clinical isolates (JMI colistin-sensitive strain #1088100 and colistin-resistant strain #1001007) were used for this study. MIC values that were determined in Difco Muller Hinton Broth (BD) for OMN6 and colistin as described above, were used as the baseline values during time-kill testing. In the time-kill experiments, OMN6 and colistin were tested in Difco Muller Hinton Broth. The time-kill cultures were sampled at 0, 2, 4, 8, and 24 h after compound addition. The number of CFU/mL in each culture was measured by plating 100 μL of serial dilutions onto blood agar plates. Colonies were counted after 48 h of growth at 35 °C. Time-kill curves were generated by plotting CFU/mL as log10 values over time. The limit of detection was 10 CFU/mL. Bactericidal activity was defined as a ≥ 99.9% reduction (i.e., a ≥ 3 log10 decrease) in the number of input bacterial cells at any arbitrary timepoint.

[5] = system: Acinetobacter baumannii; conditions: Difco Muller Hinton Broth, data not shown
Procedure: as §1

Molecule | Resistance pattern [1] | further results
NCC[C@H](O)C(=O)N[C@@H]1C[C@H](N)[C@@H](O[C@H]2O[C@H](CN)[C@@H](O)[C@H](O)[C@H]2O)[C@H](O)[C@H]1O[C@H]1O[C@H](CO)[C@@H](O)[C@H](N)[C@H]1O [Amikacin] | S | 
CC1(C)S[C@@H]2[C@H](NC(=O)[C@H](N)c3ccccc3)C(=O)N2[C@H]1C(=O)O [Ampicillin] | R | Resistance pattern [2]: R
C[C@H]1[C@H](NC(=O)/C(=N\OC(C)(C)C(=O)O)c2csc(N)n2)C(=O)N1S(=O)(=O)O [Aztreonam] | R | 
CC1(C)S[C@@H]2[C@H](NC(=O)Cc3ccccc3)C(=O)N2[C@H]1C(=O)O [Benzylpenicillin] |  | Resistance pattern [2]: R
CCC[C@@H]1C[C@@H](C(=O)N[C@@H]([C@H]2O[C@H](SC)[C@H](O)[C@@H](O)[C@H]2O)[C@H](C)Cl)N(C)C1 [CLI, clindamycin] |  | VITEK characterization (resistance range) ([3]; S. aureus ATCC 29213): S; VITEK characterization (resistance range) ([3]; S. aureus ATCC 33591): R
CC(=O)OCC1=C(C(=O)O)N2C(=O)[C@@H](NC(=O)Cc3cccs3)[C@H]2SC1 [Cefalotin] | R | 
Cc1nnc(SCC2=C(C(=O)O)N3C(=O)[C@@H](NC(=O)Cn4cnnn4)[C@H]3SC2)s1 [Cefazolin] | R | 
CO/N=C(\C(=O)N[C@@H]1C(=O)N2C(C(=O)[O-])=C(C[N+]3(C)CCCC3)CS[C@H]12)c1csc(N)n1 [Cefepime] | R | 
CO[C@@]1(NC(=O)C2SC(=C(C(N)=O)C(=O)O)S2)C(=O)N2C(C(=O)O)=C(CSc3nnnn3C)CS[C@@H]21 (stereo partly shown) [Cefotetan] | R | 
CO[C@@]1(NC(=O)Cc2cccs2)C(=O)N2C(C(=O)O)=C(COC(N)=O)CS[C@@H]21 [Cefoxitin] | R | 
COCC1=C(C(=O)O)N2C(=O)[C@@H](NC(=O)/C(=N\OC)c3csc(N)n3)[C@H]2SC1 [Cefpodoxime] | R | 
CO/N=C(\C(=O)N[C@@H]1C(=O)N2C(C(=O)O)=CCS[C@H]12)c1csc(N)n1 [Ceftizoxime] | R | 
CO/N=C(\C(=O)N[C@@H]1C(=O)N2C(C(=O)O)=C(CSc3nc(=O)c(=O)[nH]n3C)CS[C@H]12)c1csc(N)n1 [Ceftriaxone] | R | 
CO/N=C(\C(=O)N[C@@H]1C(=O)N2C(C(=O)OC(C)OC(C)=O)=C(COC(N)=O)CS[C@H]12)c1ccco1 (stereo partly shown) [Cefuroxime Axetil] | R | 
CO/N=C(\C(=O)N[C@@H]1C(=O)N2C(C(=O)O)=C(COC(N)=O)CS[C@H]12)c1ccco1 [Cefuroxime] | R | 
CC[C@H]1OC(=O)[C@H](C)[C@@H](O[C@H]2C[C@@](C)(OC)[C@@H](O)[C@H](C)O2)[C@H](C)[C@@H](O[C@@H]2O[C@H](C)C[C@H](N(C)C)[C@H]2O)[C@](C)(O)C[C@@H](C)C(=O)[C@H](C)[C@@H](O)[C@]1(C)O [ERY, erythromycin] |  | VITEK characterization (resistance range) ([3]; S. aureus ATCC 29213): S; VITEK characterization (resistance range) ([3]; S. aureus ATCC 33591): R; Resistance pattern [2]: R
C[C@H]1COc2c(N3CCN(C)CC3)c(F)cc3c(=O)c(C(=O)O)cn1c23 [Levofloxacin] |  | Resistance pattern [2]: R
C[C@@H](O)[C@H]1C(=O)N2C(C(=O)O)=C(S[C@@H]3CN[C@H](C(=O)N(C)C)C3)[C@H](C)[C@H]12 [Meropenem] | R | 
COc1c(N2C[C@@H]3CCCN[C@@H]3C2)c(F)cc2c(=O)c(C(=O)O)cn(C3CC3)c12 [Moxifloxacin] | R | 
CCn1cc(C(=O)O)c(=O)c2ccc(C)nc21 [Nalidixic Acid] | R | 
O=C1CN(/N=C/c2ccc([N+](=O)[O-])o2)C(=O)N1 [Nitrofurantoin] | R | Resistance pattern [2]: R
CCn1cc(C(=O)O)c(=O)c2cc(F)c(N3CCNCC3)cc21 [Norfloxacin] | R | 
Cc1onc(-c2ccccc2)c1C(=O)N[C@@H]1C(=O)N2[C@@H]1SC(C)(C)[C@@H]2C(=O)O [OXA, oxacillin] |  | VITEK characterization (resistance range) ([3]; S. aureus ATCC 29213): S; VITEK characterization (resistance range) ([3]; S. aureus ATCC 33591): R
CCN1CCN(C(=O)N[C@@H](C(=O)N[C@@H]2C(=O)N3[C@@H]2SC(C)(C)[C@@H]3C(=O)O)c2ccccc2)C(=O)C1=O [Piperacillin] | R | 
CN(C)[C@@H]1C(O)=C(C(N)=O)C(=O)[C@@]2(O)C(O)=C3C(=O)c4c(O)cccc4[C@@](C)(O)[C@H]3C[C@@H]12 [TET, tetracycline] | R | VITEK characterization (resistance range) ([3]; S. aureus ATCC 29213): S; VITEK characterization (resistance range) ([3]; S. aureus ATCC 33591): R; Resistance pattern [2]: R
CC1(C)S[C@@H]2[C@H](NC(=O)[C@H](C(=O)O)c3ccsc3)C(=O)N2[C@H]1C(=O)O [Ticarcillin] | R | 
CN(C)c1cc(NC(=O)CNC(C)(C)C)c(O)c2c1C[C@H]1C[C@H]3[C@H](N(C)C)C(O)=C(C(N)=O)C(=O)[C@@]3(O)C(O)=C1C2=O [Tigecycline] | S | Resistance pattern [2]: S
NC[C@H]1O[C@H](O[C@H]2[C@H](O)[C@@H](O[C@H]3O[C@H](CO)[C@@H](O)[C@H](N)[C@H]3O)[C@H](N)C[C@@H]2N)[C@H](N)C[C@@H]1O [Tobramycin] | R | 
CN[C@H](CC(C)C)C(=O)N[C@H]1C(=O)N[C@@H](CC(N)=O)C(=O)N[C@H]2C(=O)N[C@H]3C(=O)N[C@H](C(=O)N[C@H](C(=O)O)c4cc(O)cc(O)c4-c4cc3ccc4O)[C@H](O)c3ccc(c(Cl)c3)Oc3cc2cc(c3O[C@@H]2O[C@H](CO)[C@@H](O)[C@H](O)[C@H]2O[C@H]2C[C@](C)(N)[C@H](O)[C@H](C)O2)Oc2ccc(cc2Cl)[C@H]1O [VAN, vancomycin] |  | VITEK characterization (resistance range) ([3]; S. aureus ATCC 29213): S; VITEK characterization (resistance range) ([3]; S. aureus ATCC 33591): S; Resistance pattern [2]: R
colistin |  | Concentrations with bactericidal effect ([4]; colistin-resistant A. baumannii JMI #1001007, bactericidal = ≥ 3 log10 decrease): 16 to 32 µg/mL; Concentrations with bactericidal effect after 2 h of incubation ([4]; colistin-sensitive A. baumannii JMI #1088100, bactericidal = ≥ 3 log10 decrease): > 0.25 µg/mL; Re-growth during the 24 h timeframe ([4]; colistin-sensitive A. baumannii JMI #1088100, sampled 0, 2, 4, 8, 24 h): No re-growth; MIC colistin value ([5]; A. baumannii JMI #1001007 colistin-resistant strain): 8 µg/mL; MIC colistin value ([5]; A. baumannii JMI #1088100 colistin-sensitive strain): 0.5 µg/mL
